In patent publication US10525100B2, “ATF5 peptide variants and uses thereof” (Sapience Therapeutics, Inc., priority 2018, dated 2020):
Ends that are not written are not given here.

What was measured:
[1] = test system: AML14 cells; format: cell-based, human
Procedure: (§1) ST-13 was further examined in various human cancer cell lines, as was a second retro-inverso variant, ST-14. Suspension cells (HL60, AML14, or SET2) were set at a density of 3.5×10^3 cells/well in 150 μL of RPMI+1.5% fetal bovine serum (FBS) in a tissue culture-treated 96 well dish. ATF5 peptide, reconstituted at a concentration of 10 mg/mL in 20 mM His, pH 7.5, was added to each well at a volume of 50 μL to a final concentration range of 0-80 μM. Cells were incubated with peptide for 48 hours at 37° C. Cell viability was quantified by flow cytometry using an Abcam Annexin V FITC apoptosis detection kit. Briefly, cells were washed with PBS and resuspended in 1× assay buffer containing Annexin V FITC and propidium iodide (PI). Cells were analyzed by BD Accuri C6 Plus flow cytometer to detect Annexin V-FITC binding (Ex=488 nm; Em=530 nm) using FITC signal detector, and to detect PI staining using the phycoerythrin emission signal detector. Percentage of Annexin V^low and PI^low were quantified and presented as % Viability. EC50 values were calculated using GraphPad Prism v.7 XML.

[2] = test system: SET2 cells; format: cell-based, human
Procedure: as §1

[3] = test system: A375 cells; format: cell-based, human
Procedure: (§2) Additionally, adherent A375, MCF7, U251, DU145, U87, and A549 cells were set at a density of 3.5×10^3 cells/well in 200 μL of media on day −1. On day 0, media was removed and replenished with 150 μL of fresh media, and cells were treated with ATF5 peptide as described. Following a 48-hour incubation at 37° C., floating cells were collected, adherent cells were washed with Dulbecco's Phosphate Buffered Saline (DPBS), dissociated from the dish with 50 μL 2.5% trypsin at RT, and combined with floating cells. Cell viability was determined as described above for suspension cells or by MTT assay (MCF7 cells). Alternatively, cells were gently removed from the cell culture plate following trypsinization with 2.5% trypsin, and cell viability was quantified by flow cytometry using an Abcam Annexin V FITC apoptosis detection kit, as described above.

[4] = test system: MCF7 cells; format: cell-based, human
Procedure: as §2

[5] = test system: HL60 cells; assay: HL60 cell viability assay (Annexin V FITC / PI flow cytometry); format: cell-based, human; conditions: for EC50: 48 h; for cytotoxic activity compared with another peptide: HL60 cell viability, FIGS. 2-5, in words
Procedure: HL60 PML suspension cells were set at a density of 3.5×10^3 cells/well in 150 μL of RPMI+1.5% fetal bovine serum (FBS) in a 96 well dish. ST-3, reconstituted at a concentration of 10 mg/mL in 20 mM His, pH 7.5, was added to each well at a volume of 50 μL to a final concentration range of 0-80 μM. Cells were incubated with ST-3 for 48 hours at 37° C. Cell viability was quantified by flow cytometry using an Abcam Annexin V FITC apoptosis detection kit. Briefly, cells were washed with PBS and resuspended in 1× assay buffer containing Annexin V FITC and propidium iodide (PI). Annexin V detects apoptotic cells, and PI stains dead cells. After staining, apoptotic cells show green fluorescence, dead cells show red and green fluorescence, and live cells show little or no fluorescence. Cells were selected for analysis based on forward scatter (FSC) vs. side scatter (SSC), and analyzed by BD Accuri C6 Plus flow cytometer to detect Annexin V-FITC binding (Ex=488 nm; Em=530 nm) using FITC signal detector and PI staining by the phycoerythrin emission signal detector. Percentage of Annexin V^low and PI^low were quantified and presented as % Viability.
Lyophilized ST-3 or ST-3 with glycine (ST-4) or alanine (ST-5) substituted for cysteine at amino acid position 21 was freshly reconstituted in histidine buffer to a stock solution of 5 mg/mL and added to cells at a final concentration range of 0-40 μM. Cells were incubated with ATF5 peptide for 48 hours prior to quantification of cell viability.
as §1

[6] = test system: wide range of tumor cell types; assay: Cytotoxic activity in various human cancer cell lines; format: cell-based; conditions: in words; FIGS. 6A-6E, 7A-7E
Procedure: as §1, with “Briefly, cells were washed with PBS and resuspended in 1× assay buffer containing Annexin V FITC and propidium iodide (PI).” left out, “XML. […] Cell viability was determined as described above for suspension cells or by MTT assay (MCF7 cells). Alternatively, cells were gently removed from the cell culture plate following trypsinization with 2.5% trypsin, and cell viability was quantified by flow cytometry using an Abcam Annexin V FITC apoptosis detection kit, as described above.” for “XML.”

Compound | EC50 [5] | cytotoxic activity compared with another peptide [5] | further results
RQIKIWFQNRRMKWKKLEGECQGLEARNRELKERAESV [ST-3, reference compound] | – | – | EC50 [1]: 29.6 µM; EC50 [2]: 98.2 µM; EC50 [3]: 21.8 µM; EC50 [4]: 52.9 µM
RQIKIWFQNRRMKWKKLEGEGQGLEARNRELKERAESV [ST-4] | ~35 µM | attenuated but not ablated | –
RQIKIWFQNRRMKWKKLEGRAQGLRAELRELEERAEAV [ST-11] | 4.2 µM | improved cytotoxic activity over ST-3 | –
RQIKIWFQNRRMKWKKLEGECQGLEARNRELKERAEAV [ST-6] | 11.2 µM | comparable activity to ST-3 | –
RQIKIWFQNRRMKWKKLEGRCQGLRAELRELEERAEAV [ST-10] | 2.2 µM | comparable to that of ST-9 | –
RQIKIWFQNRRMKWKKLEGEAQGLEARNRELKERAESV [ST-5] | ~38 µM | attenuated but not ablated | –
CC[C@@H](C)[C@@H](NC(=O)[C@@H](CCCCN)NC(=O)[C@H](NC(=O)[C@@H](Cc1c[nH]c2ccccc12)NC(=O)[C@@H](Cc1ccccc1)NC(=O)[C@@H](CCC(N)=O)NC(=O)[C@@H](CC(N)=O)NC(=O)[C@@H](CCCNC(=N)N)NC(=O)[C@@H](CCCNC(=N)N)NC(=O)[C@@H](CCSC)NC(=O)[C@@H](CCCCN)NC(=O)[C@@H](Cc1c[nH]c2ccccc12)NC(=O)[C@@H](CCCCN)NC(=O)[C@@H](CCCCN)NC(=O)[C@@H](CC(C)C)NC(=O)[C@@H](CCC(=O)O)NC(=O)CNC(=O)[C@@H](CCCNC(=N)N)NC(=O)[C@@H](C)NC(=O)[C@@H](CCC(N)=O)NC(=O)CNC(=O)[C@@H](CC(C)C)NC(=O)[C@@H](CCCNC(=N)N)NC(=O)[C@@H](C)NC(=O)[C@@H](CCC(=O)O)NC(=O)[C@@H](CC(C)C)NC(=O)[C@@H](CCCNC(=N)N)NC(=O)[C@@H](CCC(=O)O)NC(=O)[C@@H](CC(C)C)NC(=O)[C@@H](CCC(=O)O)NC(=O)[C@@H](CCC(=O)O)NC(=O)[C@@H](CCCNC(=N)N)NC(=O)[C@@H](C)NC(=O)[C@@H](CCC(=O)O)NC(=O)[C@@H](C)NC(=O)[C@H](N)C(C)C)[C@H](C)CC)C(=O)N[C@H](CCC(N)=O)C(=O)N[C@H](CCCNC(=N)N)C(=O)O [ST-13] | 4.8 µM | – | EC50 [3]: 1.4 µM; cytotoxic activity in tumor cell types [6]: significant cytotoxic activity
RQIKIWFQNRRMKWKKLEGRCQGLRAENRELEERAESV [ST-9] | 2 µM | significantly increased over that of ST-3 | –
